Source: patent publication US9738655B2, “Tetrahydroisoquinolines containing substituted azoles as factor XIa inhibitors” (BRISTOL-MYERS SQUIBB COMPANY, priority 2013, dated 2017)
Structures can show the parent of a compound that is named as a salt. Where two headings read alike, the source gives them in different places.

Columns and labels:
[1] = target: purified human plasma kallikrein (Homo sapiens (Human), UniProt P03952); experiment: Plasma kallikrein enzyme inhibition assay (chromogenic substrate S-2302); format: biochemical
Chain of purified human plasma kallikrein (P03952 391-638): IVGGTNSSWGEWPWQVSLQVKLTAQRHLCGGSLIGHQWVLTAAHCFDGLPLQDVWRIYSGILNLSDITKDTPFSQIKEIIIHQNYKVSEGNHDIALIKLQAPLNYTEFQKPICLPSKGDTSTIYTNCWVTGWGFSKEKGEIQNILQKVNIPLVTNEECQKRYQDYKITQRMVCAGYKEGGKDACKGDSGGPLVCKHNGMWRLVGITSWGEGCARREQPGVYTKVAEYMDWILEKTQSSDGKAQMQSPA
Chain of purified human plasma kallikrein (P03952 20-390 partner): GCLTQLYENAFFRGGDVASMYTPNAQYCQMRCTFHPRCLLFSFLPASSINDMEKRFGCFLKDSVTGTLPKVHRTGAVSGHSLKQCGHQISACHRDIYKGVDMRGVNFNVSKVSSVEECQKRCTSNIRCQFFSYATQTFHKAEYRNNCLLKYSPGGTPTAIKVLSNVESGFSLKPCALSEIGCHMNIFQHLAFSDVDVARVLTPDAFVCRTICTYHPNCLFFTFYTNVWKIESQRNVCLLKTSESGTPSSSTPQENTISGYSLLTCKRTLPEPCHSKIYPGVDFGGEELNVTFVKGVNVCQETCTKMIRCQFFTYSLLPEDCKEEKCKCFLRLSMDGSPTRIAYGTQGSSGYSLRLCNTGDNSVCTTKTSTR

[2] = target: purified human Factor XIa (Homo sapiens (Human), UniProt P03951); experiment: Factor XIa enzyme inhibition assay (chromogenic substrate S-2366)
Chain of purified human Factor XIa (P03951 388-625): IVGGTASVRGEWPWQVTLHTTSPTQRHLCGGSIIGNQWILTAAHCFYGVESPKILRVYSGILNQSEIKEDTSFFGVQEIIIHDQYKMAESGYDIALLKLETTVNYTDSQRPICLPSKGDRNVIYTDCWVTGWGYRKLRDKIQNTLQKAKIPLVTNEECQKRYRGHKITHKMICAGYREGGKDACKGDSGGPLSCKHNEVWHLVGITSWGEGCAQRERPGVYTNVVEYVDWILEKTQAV
Chain of purified human Factor XIa (P03951 19-387 partner): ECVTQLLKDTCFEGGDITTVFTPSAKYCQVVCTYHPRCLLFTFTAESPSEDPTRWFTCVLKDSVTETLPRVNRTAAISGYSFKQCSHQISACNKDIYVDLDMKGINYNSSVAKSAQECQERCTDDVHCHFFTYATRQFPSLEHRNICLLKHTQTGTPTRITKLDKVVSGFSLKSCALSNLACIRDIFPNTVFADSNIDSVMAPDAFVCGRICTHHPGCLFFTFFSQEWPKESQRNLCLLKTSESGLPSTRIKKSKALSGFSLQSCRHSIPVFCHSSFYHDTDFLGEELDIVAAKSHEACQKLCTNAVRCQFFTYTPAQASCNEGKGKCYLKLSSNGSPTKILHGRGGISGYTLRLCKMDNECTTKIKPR

[3] = measured at 25° C. (no asterisk)
[4] = measured at 25° C. (no asterisk), TFA salt
[5] = read-out: Factor XIa Ki, measured at 25° C.
[6] = read-out: Factor XIa Ki, measured at 25° C., TFA salt

SMILES | Ki [2] | Ki ([1]; measured at 37° C. (*)) | Ki [2, 5] | further results
CN1CCN(c2cccc3c2CCN(C(=O)C2CC(c4cccc(Cl)c4)=NO2)C3C(=O)Nc2ccc(C(=O)O)cc2)CC1 (single isomer, unassigned) [Example 216, 4-(2-(3-(3-chlorophenyl)-4,5-dihydroisoxazole-5-carbonyl)-5-(4-methylpiperazin-1-yl)-1,2,3,4-tetrahydroisoquinoline-1-carboxamido)benzoic acid, 2 TFA salt] | < 5 nM | – | – | Ki [1, 3]: 0.36 nM
COC1CCN(c2cccc3c2CCN(C(=O)[C@H]2CC(c4cccc(Cl)c4F)=NO2)[C@@H]3C(=O)Nc2ccccc2F)CC1 (single isomer, unassigned) [Example 235, TFA salt] | 23.2 nM | 478 nM | – | –
COC1CCN(c2cccc3c2CCN(C(=O)[C@H]2CC(c4cccc(Cl)c4F)=NO2)[C@H]3C(=O)Nc2ccccc2F)CC1 (single isomer, unassigned) [Example 236, TFA salt] | 454 nM | > 4340 nM | – | –
COC1CCN(c2cccc3c2CCN(C(=O)[C@H]2CC(c4cccc(Cl)c4F)=NO2)[C@@H]3C(=O)Nc2cccc(F)c2)CC1 (single isomer, unassigned) [Example 237, TFA salt] | 15.3 nM | 130 nM | – | –
COC1CCN(c2cccc3c2CCN(C(=O)[C@H]2CC(c4cccc(Cl)c4F)=NO2)[C@H]3C(=O)Nc2cccc(F)c2)CC1 (single isomer, unassigned) [Example 238, TFA salt] | 635 nM | > 4340 nM | – | –
COC1CCN(c2cccc3c2CCN(C(=O)[C@H]2CC(c4cccc(Cl)c4F)=NO2)[C@@H]3C(=O)Nc2cccnc2)CC1 (single isomer, unassigned) [Example 241, TFA salt] | 8.78 nM | 66.7 nM | – | –
COC1CCN(c2cccc3c2CCN(C(=O)[C@H]2CC(c4cccc(Cl)c4F)=NO2)[C@H]3C(=O)Nc2cccnc2)CC1 (single isomer, unassigned) [Example 242, TFA salt] | 188 nM | 1230 nM | – | –
COC1CCN(c2cccc3c2CCN(C(=O)[C@H]2CC(c4cccc(Cl)c4F)=NO2)[C@@H]3C(=O)Nc2ccc(C(=O)O)cc2F)CC1 (single isomer, unassigned) [Example 243, TFA salt] | < 5 nM | 37.6 nM | – | –
COC1CCN(c2cccc3c2CCN(C(=O)[C@H]2CC(c4cccc(Cl)c4F)=NO2)[C@H]3C(=O)Nc2ccc(C(=O)O)cc2F)CC1 (single isomer, unassigned) [Example 244, TFA salt] | 38.7 nM | 635 nM | – | –
CN(C)C(=O)C1CCN(c2cccc3c2CCN(C(=O)C2CC(c4cccc(Cl)c4F)=NO2)C3C(=O)Nc2ccc(C(=O)O)cc2)CC1 (single isomer, unassigned) [Example 278, 4-(2-(3-(3-chloro-2-fluorophenyl)-4,5-dihydroisoxazole-5-carbonyl)-5-(4-(dimethylcarbamoyl)piperidin-1-yl)-1,2,3,4-tetrahydroisoquinoline-1-carboxamido)benzoic acid, TFA salt] | – | – | < 5 nM | Ki [1, 4]: 1.98 nM
CN(C)C(=O)C1CCN(c2cccc3c2CCN(C(=O)C2CC(c4cccc(Cl)c4F)=NO2)C3C(=O)Nc2ccc(C(=O)O)cc2)CC1 (single isomer, unassigned) [Example 279, 4-(2-(3-(3-chloro-2-fluoropheny)-4,5-dihydroisoxazole-5-carbonyl)-5-(4-(dimethylcarbamoyl)piperidin-1-yl)-1,2,3,4-tetrahydroisoquinoline-1-carboxamido)benzoic acid, TFA salt] | – | – | < 5 nM | Ki [1, 4]: 30.8 nM
CN1CCN(c2cccc3c2CCN(C(=O)C2CC(c4cccc(Cl)c4F)=NO2)C3C(=O)Nc2ccc(C(=O)O)cc2)CC1=O (single isomer, unassigned) [Example 280, 4-(2-(3-(3-chloro-2-fluorophenyl)-4,5-dihydroisoxazole-5-carbonyl)-5-(4-methyl-3-oxopiperazin-1-yl)-1,2,3,4-tetrahydroisoquinoline-1-carboxamido)benzoic acid, TFA salt] | – | – | – | Ki [1, 4]: 283 nM; Ki [2, 6]: 36.5 nM
CN1CCN(c2cccc3c2CCN(C(=O)C2CC(c4cccc(Cl)c4F)=NO2)C3C(=O)Nc2ccc(C(=O)O)cc2)CC1=O (single isomer, unassigned) [Example 281, 4-(2-(3-(3-chloro-2-fluorophenyl)-4,5-dihydroisoxazole-5-carbonyl)-5-(4-methyl-3-oxopiperazin-1-yl)-1,2,3,4-tetrahydroisoquinoline-1-carboxamido)benzoic acid, TFA] | – | – | – | Ki ([1]; measured at 25° C. (no asterisk), TFA): 79 nM; Ki ([2]; read-out: Factor XIa Ki, measured at 25° C., TFA): 12.8 nM
CN1CCN(c2cccc3c2CCN(C(=O)C2CC(c4cccc(Cl)c4F)=NO2)C3C(=O)Nc2ccc(C(=O)O)cc2)CC1=O (single isomer, unassigned) [Example 282, 4-(2-(3-(3-chloro-2-fluorophenyl)-4,5-dihydroisoxazole-5-carbonyl)-5-(4-methyl-3-oxopiperazin-1-yl)-1,2,3,4-tetrahydroisoquinoline-1-carboxamido)benzoic acid, TFA salt] | – | – | – | Ki [1, 4]: 1.87 nM; Ki [2, 6]: < 5 nM
CN1CCN(c2cccc3c2CCN(C(=O)C2CC(c4cccc(Cl)c4F)=NO2)C3C(=O)Nc2ccc(C(=O)O)cc2)CC1=O (single isomer, unassigned) [Example 283, 4-(2-(3-(3-chloro-2-fluorophenyl)-4,5-dihydroisoxazole-5-carbonyl)-5-(4-methyl-3-oxopiperazin-1-yl)-1,2,3,4-tetrahydroisoquinoline-1-carboxamido)benzoic acid, TFA salt] | – | – | – | Ki [1, 4]: 75.3 nM; Ki [2, 6]: 8.27 nM
O=C(NC12CCC(C(=O)O)(CC1)CC2)[C@@H]1c2cccc(-c3cncnc3)c2CCN1C(=O)c1cn(-c2cccc(Cl)c2F)nn1 (single isomer, unassigned; enantiomer a) [Example 144, 4-(2-{[1-(3-Chloro-2-fluorophenyl)-1H-1,2,3-triazol-4-yl]carbonyl}-5-(pyrimidin-5-yl)-1,2,3,4-tetrahydroisoquinoline-1-amido)bicyclo[2.2.2]octane-1-carboxylic acid, 1 TFA (enantiomer A)] | – | 11600 nM | 3030 nM | –
O=C(NC12CCC(C(=O)O)(CC1)CC2)[C@H]1c2cccc(-c3cncnc3)c2CCN1C(=O)c1cn(-c2cccc(Cl)c2F)nn1 (single isomer, unassigned; enantiomer b) [Example 145, 4-(2-{[1-(3-Chloro-2-fluorophenyl)-1H-1,2,3-triazol-4-yl]carbonyl}-5-(pyrimidin-5-yl)-1,2,3,4-tetrahydroisoquinoline-1-amido)bicyclo[2.2.2]octane-1-carboxylic acid, 1 TFA (enantiomer B)] | – | 252 nM | 7.87 nM | –
O=C(Nc1ccc2ncccc2c1)[C@H]1c2cccc(-c3cncnc3)c2CCN1C(=O)c1cn(-c2cccc(Cl)c2F)nn1 (stereo in doubt) [Example 125, 2-(1-(3-Chloro-2-fluorophenyl)-1H-1,2,3-triazole-4-carbonyl)-5-(pyrimidin-5-yl)-N-(quinolin-6-yl)-1,2,3,4-tetrahydroisoquinoline-1-carboxamide, TFA salt] | – | 54.1 nM | 9.62 nM | –
O=C(O)c1ccc(NC(=O)C2c3ccccc3CCN2C(=O)c2cn(-c3cccc(Cl)c3F)nn2)cc1 (stereo not drawn) [Example 1, 4-(2-(1-(3-Chloro-2-fluorophenyl)-1H-1,2,3-triazole-4-carbonyl)-1,2,3,4-tetrahydroisoquinoline-1-carboxamido)benzoic acid] | – | – | 13.5 nM | Ki [1, 3]: 20.8 nM
O=C(O)c1ccc(NC(=O)[C@@H]2c3ccccc3CCN2C(=O)c2cn(-c3cccc(Cl)c3F)nn2)cc1 [Example 3, (S)-4-(2-(1-(3-Chloro-2-fluorophenyl)-1H-1,2,3-triazole-4-carbonyl)-1,2,3,4-tetrahydroisoquinoline-1-carboxamido)benzoic acid] | – | – | 6.44 nM | Ki [1, 3]: 13.1 nM
CN(C)CCNC(=O)c1ccc(-c2cccc3c2CCN(C(=O)c2cn(-c4cccc(Cl)c4F)nn2)C3C(=O)Nc2ccc(C(=O)O)cc2)cc1 (stereo not drawn) [Example 6, 4-(2-(1-(3-Chloro-2-fluorophenyl)-1H-1,2,3-triazole-4-carbonyl)-5-(4-((2-(dimethylamino)ethyl)carbamoyl)phenyl)-1,2,3,4-tetrahydroisoquinoline-1-carboxamido)benzoic acid] | – | – | < 5 nM | Ki [1, 3]: 2.4 nM
Cc1c(C(=O)N2CCc3c(-c4ccc(C(=O)NCCN(C)C)cc4)cccc3C2C(=O)Nc2ccc(C(=O)O)cc2)nnn1-c1cccc(Cl)c1F (stereo not drawn) [Example 7, 4-(2-(1-(3-Chloro-2-fluorophenyl)-5-methyl-1H-1,2,3-triazole-4-carbonyl)-5-(4-((2-(dimethylamino)ethyl)carbamoyl)phenyl)-1,2,3,4-tetrahydroisoquinoline-1-carboxamido)benzoic acid, TFA salt] | – | – | < 5 nM | Ki [1, 3]: 29.9 nM
CN(C)CCNC(=O)c1ccc(-c2cccc3c2CCN(C(=O)c2cnn(-c4cccc(Cl)c4F)c2)C3C(=O)Nc2ccc(C(=O)O)cc2)cc1 (stereo not drawn) [Example 8, 4-(2-(1-(3-Chloro-2-fluorophenyl)-1H-pyrazole-4-carbonyl)-5-(4-((2-(dimethylamino)ethyl)carbamoyl)phenyl)-1,2,3,4-tetrahydroisoquinoline-1-carboxamido)benzoic acid, TFA salt] | – | – | < 5 nM | Ki [1, 3]: 3.37 nM
CN(C)CCNC(=O)c1ccc(-c2cccc3c2CCN(C(=O)c2cn(-c4cccc(Cl)c4F)nn2)[C@@H]3C(=O)Nc2ccc(C(=O)O)cc2)cc1 [Example 10, (S)-4-(2-(1-(3-Chloro-2-fluorophenyl)-1H-1,2,3-triazole-4-carbonyl)-5-(4-((2-(dimethylamino)ethyl)carbamoyl)phenyl)-1,2,3,4-tetrahydroisoquinoline-1-carboxamido)benzoic acid, TFA salt] | – | – | < 5 nM | Ki [1, 3]: 1.08 nM
